Assay results from paper doi:10.1101/2023.04.17.537234, “A biophysical rationale for the selective inhibition of PTP1B over TCPTP by nonpolar terpenoids” (bioRxiv, 2023).

Assays:
[1] = target: PTP1B; assay: pNPP enzyme kinetics, inhibition by amorphadiene; type: biochemical, H. Sapiens
Description: (§1) We overexpressed all proteins examined in this study in BL21(DE3) cells by carrying out steps described previously: (i) We used Gibson assembly to introduce mutations for PTP1B or TCPTP encoded by a pET16b vector and transformed sequence-confirmed plasmids into BL21(DE3) cells. (ii) We used an individual colony from each transformation to inoculate 20 mL of LB media, which we incubated at 37°C in an incubator-shaker (225 rpm) for 6 hours, prior to inoculating 1 L of rich induction media (20 g tryptone, 10 g yeast extract, 5 g sodium chloride, 50 μg/mL carbenicillin, 72 mL 5X M9 salts solution, 20 mL of 20% glucose solution). (iii) We grew the resulting inoculum at 37°C and 225 rpm. (iv) At an OD600 of 0.5–0.8, we added 500 μM IPTG to induce protein expression and incubated the induced flasks at 22°C and 225 rpm for 18–20 hours. (v) We pelleted the final culture (5000 rpm for 10 minutes in a Beckman J2-HS floor centrifuge), disposed of the supernatants, and stored the cell pellets at −80°C freezer for future purification. We purified PTP variants with fast protein liquid chromatography (FPLC) using previously described protocols. In brief, we lysed cells with chemical lysis buffer (for each gram of cell pellet, we used 4 mL of 20 mM tris base, 50 mM sodium chloride, 1% Triton X-100, and pH 7.5 supplemented with 2 mg MgSO4–7H2O, 2 mg TAME, 0.5 mL TCEP (0.5 mM), 3.75 μL PMSF solution, 1 mg lysozyme, and 30 U DNase), removed protein debris with saturated ammonium sulfate (20% for PTP1B variants and 10% TCPTP variants, respectively), and extracted the supernatant. We purified PTPs by using nickel affinity chromatography (HisTrap HP with 50 mM Tris-HCl, 300 mM sodium chloride, and 0.5 mM TCEP at pH 7.5 with and without 500 mM imidazole) followed by anion exchange chromatography (HiTrap HP 5 mL with 50 mM HEPES, and 0.5 mM TCEP at pH 7.5 with and without 1 M NaCl). We concentrated final protein fractions into NaCl-free anion exchange buffer ([…], Sartorius) and stored them in 20% glycerol at −80°C.
(§2) We characterized the activity of PTP variants on p-nitrophenyl phosphate (pNPP). In brief, we used 96-well plates to prepare 200-μL reactions with 50 nM enzyme, 50 μg/mL BSA, and varying amorphadiene concentrations (0.5 – 500 μM) in 50 mM HEPES buffer (pH = 7.3) with 10% DMSO. We used 20 mM substrate to initialize the reactions and monitored the formation of p-nitrophenol (pNP) by measuring absorbance at 405 nm at 30-s intervals over 8 minutes (SpectraMax iD3 plate reader). We used standard curves to convert absorbance measurements to product concentrations and used the slopes of the initial rate regime for Vo.

[2] = target: TCPTP; assay: pNPP enzyme kinetics, inhibition by amorphadiene; type: biochemical, H. Sapiens
Description: as §1, §2

[3] = tested on: PTP1B; conditions: PTP1B over TCPTP; cited from earlier work
[4] = Solubility; type: physicochemical

| Compound | IC50 of AD, mutant vs wild-type ([1]; PTP1B L158F vs wild-type) | IC50 of AD, mutant vs wild-type ([1]; PTP1B M282K) | IC50 of AD, mutant vs wild-type ([1]; PTP1B Q290R) | IC50 of AD, mutant vs wild-type ([2]; TCPTP K280M) | IC50 of AD, mutant vs wild-type ([2]; TCPTP L158F vs wild-type) | IC50 of AD, mutant vs wild-type ([2]; TCPTP R288Q) | selectivity: inhibits PTP1B more potently than TCPTP [3] | solubility [4] |
| --- | --- | --- | --- | --- | --- | --- | --- | --- |
| C=C(C)[C@@H]1CC[C@@H](C)[C@@H]2CCC(C)=C[C@@H]21 [AD, amorphadiene] | indistinguishable | reduced potency | reduced potency | no effect on IC50 | indistinguishable | no effect on IC50 | 5–7 X | – |
| CCc1oc2cc(S(=O)(=O)Nc3ccc(S(=O)(=O)Nc4nccs4)cc3)ccc2c1C(=O)c1cc(Br)c(O)c(Br)c1 [BBR, 3-(3,5-Dibromo-4-hydroxy-benzoyl)-2-ethyl-benzofuran-6-sulfonic-acid-(4-(thiazol-2-ylsulfamyl)-phenyl)-amide, reference compound] | – | – | – | – | – | – | 5–6 X | – |
| CC(C)=CCC=C(C)C1CC=C(C)CC1 (stereo not drawn) [AB, α-bisabolene] | – | – | – | – | – | – | 5–7 X | low solubility |
